What was measured:
Format in all cases: in vivo
[1] = tested on: fall armyworm (Spodoptera frugiperda); experiment: Test B: control of fall armyworm on corn (maize) plant, foliar spray; settings: sprayed at 50 ppm
In short: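 4-5-day-old corn plants pre-infested with 10-15 1-day-old larvae on insect diet, then sprayed with compound at 50 ppm in 10% acetone/90% water with 300 ppm surfactant, three replicates. Held 6 days at 25° C, 70% RH; feeding damage assessed visually and mortality rated.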

[2] = tested on: western flower thrips (Frankliniella occidentalis); experiment: Test E: control of western flower thrips on Soleil bean plant, contact and/or systemic; settings: held 6 days
In short: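 5–7-day-old Soleil bean plants were sprayed at 250 or 50 ppm in 10% acetone/90% water with 300 ppm X-77 surfactant, three replicates. After drying 1 h, 22–27 adult thrips were added per unit. Mortality and plant damage were rated after 6 days at 25 °C and 45–55% RH.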

[3] = tested on: diamondback moth (Plutella xylostella); experiment: Test A: control of diamondback moth on radish plant, foliar spray; settings: sprayed at 50 ppm, held 6 days
In short: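 Radish plants 12–14 days old, pre-infested with about 50 neonate larvae, sprayed at 50 ppm in 10% acetone/water with 300 ppm X-77 surfactant; three replicates. After 6 days at 25° C and 70% RH, feeding damage was scored visually and mortality counted.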

Measured: levels of control efficacy (20% or less feeding damage or 80% or more mortality)

O=C(CNC(=O)c1ccc(C2=NOC(c3cccc(C(F)(F)F)c3)(C(F)(F)F)C2)c2ccccc12)NCC(F)(F)F (racemic) [Compound 35]
very good to excellent: [1] | [2]; sprayed at 250 ppm | [3]

CNC(=O)C(C)NC(=O)c1ccc(C2=NOC(c3cc(Br)cc(C(F)(F)F)c3)(C(F)(F)F)C2)c2ccccc12 (mixture of isomers) [Compound 141]
very good to excellent: [1] | [2]; sprayed at 50 ppm | [3]

CC(NC(=O)c1ccc(C2=NOC(c3cc(C(F)(F)F)cc(C(F)(F)F)c3)(C(F)(F)F)C2)c2ccccc12)C(=O)NCC(C)(C)C (mixture of isomers) [Compound 124]
very good to excellent: [1] | [2]; sprayed at 250 ppm | [3]

CSCCC(C)NC(=O)c1ccc(C2=NOC(c3cc(Cl)cc(Cl)c3)(C(F)(F)F)C2)c2ccccc12 (stereo not drawn) [Compound 26]
very good to excellent: [1] | [2]; sprayed at 50 ppm | [2]; sprayed at 250 ppm | [3]

COCCNC(=O)c1ccc(C2=NOC(c3cc(Cl)cc(Cl)c3)(C(F)(F)F)C2)c2ccccc12 (stereo not drawn) [Compound 28]
very good to excellent: [1] | [2]; sprayed at 50 ppm | [2]; sprayed at 250 ppm | [3]

CC(C)CNC(=O)C(C)NC(=O)c1ccc(C2=NOC(c3cc(C(F)(F)F)cc(C(F)(F)F)c3)(C(F)(F)F)C2)c2ccccc12 (stereo not drawn) [Compound 90]
very good to excellent: [1] | [2]; sprayed at 50 ppm | [3]

CCNC(=O)CNC(=O)c1ccc(C2=NOC(c3cc(Cl)cc(Cl)c3)(C(F)(F)F)C2)c2ccccc12 (stereo not drawn) [Compound 8]
very good to excellent: [1] | [2]; sprayed at 50 ppm | [2]; sprayed at 250 ppm | [3]

CSCCNC(=O)c1ccc(C2=NOC(c3cc(F)cc(C(F)(F)F)c3)(C(F)(F)F)C2)c2ccccc12 (racemic) [Compound 132]
very good to excellent: [1] | [2]; sprayed at 50 ppm | [2]; sprayed at 250 ppm | [3]

O=C(CNC(=O)c1ccc(C2=NOC(c3cc(Cl)cc(Cl)c3)(C(F)(F)F)C2)c2ccccc12)NCCF (stereo not drawn) [Compound 12]
very good to excellent: [1] | [2]; sprayed at 50 ppm | [2]; sprayed at 250 ppm | [3]

CSCCNC(=O)c1ccc(C2=NOC(c3cc(C(F)(F)F)cc(C(F)(F)F)c3)(C(F)(F)F)C2)c2ccccc12 (racemic) [Compound 58]
very good to excellent: [1] | [2]; sprayed at 50 ppm | [2]; sprayed at 250 ppm | [3]

CCNC(=O)C(C)NC(=O)c1ccc(C2=NOC(c3cc(C(F)(F)F)cc(C(F)(F)F)c3)(C(F)(F)F)C2)c2ccccc12 (mixture of isomers) [Compound 96]
very good to excellent: [1] | [2]; sprayed at 250 ppm | [3]

CSCCNC(=O)c1ccc(C2=NOC(c3cc(Cl)cc(Cl)c3)(C(F)(F)F)C2)c2ccccc12 (stereo not drawn) [Compound 17]
very good to excellent: [1] | [2]; sprayed at 50 ppm | [2]; sprayed at 250 ppm | [3]

CC[S+]([O-])CCNC(=O)c1ccc(C2=NOC(c3cc(C(F)(F)F)cc(C(F)(F)F)c3)(C(F)(F)F)C2)c2ccccc12 (stereo not drawn) [Compound 98]
very good to excellent: [1] | [2]; sprayed at 50 ppm | [3]

CSCC(C)NC(=O)c1ccc(C2=NOC(c3cc(C(F)(F)F)cc(C(F)(F)F)c3)(C(F)(F)F)C2)c2ccccc12 (mixture of isomers) [Compound 59]
very good to excellent: [1] | [2]; sprayed at 50 ppm | [2]; sprayed at 250 ppm | [3]

O=C(CNC(=O)c1ccc(C2=NOC(c3cc(Br)cc(Br)c3)(C(F)(F)F)C2)c2ccccc12)NCC(F)(F)F (stereo not drawn) [Compound 23]
very good to excellent: [1] | [2]; sprayed at 50 ppm | [2]; sprayed at 250 ppm | [3]

CC(NC(=O)CNC(=O)c1ccc(C2=NOC(c3cc(Cl)cc(Cl)c3)(C(F)(F)F)C2)c2ccccc12)C(F)(F)F (mixture of isomers) [Compound 122]
very good to excellent: [1] | [2]; sprayed at 50 ppm | [2]; sprayed at 250 ppm | [3]

CC(C)(NC(=O)c1ccc(C2=NOC(c3cc(Cl)cc(Cl)c3)(C(F)(F)F)C2)c2ccccc12)C(=O)NCC(F)(F)F (stereo not drawn) [Compound 4]
very good to excellent: [1] | [2]; sprayed at 50 ppm | [2]; sprayed at 250 ppm | [3]

CS(=O)(=O)CCNC(=O)c1ccc(C2=NOC(c3cc(Br)cc(C(F)(F)F)c3)(C(F)(F)F)C2)c2ccccc12 (racemic) [Compound 54]
very good to excellent: [1] | [2]; sprayed at 50 ppm | [2]; sprayed at 250 ppm | [3]

O=C(CNC(=O)c1ccc(C2=NOC(c3cc(C(F)(F)F)cc(C(F)(F)F)c3)(C(F)(F)F)C2)c2ccccc12)NCC(F)(F)F (racemic) [Compound 37]
very good to excellent: [1] | [2]; sprayed at 50 ppm | [2]; sprayed at 250 ppm | [3]

O=C(CNC(=O)c1ccc(C2=NOC(c3cc(Br)cc(C(F)(F)F)c3)(C(F)(F)F)C2)c2ccccc12)NCC(F)(F)F (racemic) [Compound 52]
very good to excellent: [1] | [2]; sprayed at 50 ppm | [2]; sprayed at 250 ppm | [3]

CSCCNC(=O)c1ccc(C2=NOC(c3cc(Cl)cc(C(F)(F)F)c3)(C(F)(F)F)C2)c2ccccc12 (stereo not drawn) [Compound 65]
very good to excellent: [1] | [2]; sprayed at 50 ppm | [2]; sprayed at 250 ppm | [3]

CCNC(=O)C(C)NC(=O)c1ccc(C2=NOC(c3cc(F)cc(C(F)(F)F)c3)(C(F)(F)F)C2)c2ccccc12 (mixture of isomers) [Compound 137]
very good to excellent: [1] | [2]; sprayed at 50 ppm | [3]

— US8410153B2, “Naphthalene isoxazoline invertebrate pest control agents” (E.I. du Pont de Nemours and Company, priority 2007, dated 2013)
